The NIST ThermoML archive (doi:10.1021/je100353j)
Several values for one entry are separate records, joined by “and”; a condition that tells them apart may be missing. Identical values can stand only once. Numbers after ± are expanded uncertainties.

Key:
[1] = Liquid
[2] = xn = mol fraction of the nth substance listed; settings: Liquid, x2 = 0

C1CCCCC1 [cyclohexane]
mass density [kg/m3], [1]
Settings	101.33 kPa	5000 kPa	10000 kPa	20000 kPa	30000 kPa	40000 kPa
293.15 K	778.8 ± 0.5	782.8 ± 0.7	786.6 ± 0.8	793.9 ± 1.1	801 ± 1.4	807.8 ± 1.7
298.15 K	773.9 ± 0.6	778.3 ± 0.7	782.3 ± 0.9	789.8 ± 1.1	796.7 ± 1.4	802.9 ± 1.7
303.15 K	769.3 ± 0.6	773.6 ± 0.7	777.8 ± 0.9	785.7 ± 1.2	792.8 ± 1.4	799.2 ± 1.7
308.15 K	764.5 ± 0.6	769 ± 0.7	773.4 ± 0.9	781.5 ± 1.2	788.8 ± 1.5	795.5 ± 1.7
313.15 K	759.7 ± 0.6	764.5 ± 0.7	768.9 ± 0.9	777.4 ± 1.2	784.8 ± 1.5	791.8 ± 1.8

C1CCCCC1 [cyclohexane] + COC(=O)OC
mass density [kg/m3], [2]
Settings	100 kPa	5000 kPa	10000 kPa	20000 kPa	30000 kPa	40000 kPa
293.15 K	778.8 ± 0.5	782.8 ± 0.7	786.6 ± 0.8	793.9 ± 1.1	801 ± 1.4	807.8 ± 1.7
298.15 K	773.9 ± 0.6	778.3 ± 0.7	782.3 ± 0.9	789.8 ± 1.1	796.7 ± 1.4	802.9 ± 1.7
303.15 K	769.3 ± 0.6	773.6 ± 0.7	777.8 ± 0.9	785.7 ± 1.2	792.8 ± 1.4	799.2 ± 1.7
308.15 K	764.5 ± 0.6	769 ± 0.7	773.4 ± 0.9	781.5 ± 1.2	788.8 ± 1.5	795.5 ± 1.7
313.15 K	759.7 ± 0.6	764.5 ± 0.7	768.9 ± 0.9	777.4 ± 1.2	784.8 ± 1.5	791.8 ± 1.8

COC(=O)OC [dimethyl carbonate]
mass density, [1]
Settings	101.33 kPa	5000 kPa	10000 kPa	20000 kPa	30000 kPa	40000 kPa
293.15 K	1069.8 ± 0.4 kg/m3	1074.4 ± 0.5 kg/m3	1078.6 ± 0.5 kg/m3	1086.9 ± 0.6 kg/m3	1094.5 ± 0.8 kg/m3	1101.9 ± 1 kg/m3
298.15 K	1063.2 ± 0.4 kg/m3	1068 ± 0.5 kg/m3	1072.4 ± 0.5 kg/m3	1080.8 ± 0.6 kg/m3	1088.7 ± 0.8 kg/m3	1096.2 ± 1 kg/m3
303.15 K	1056.5 ± 0.4 kg/m3	1061.3 ± 0.5 kg/m3	1066 ± 0.5 kg/m3 and 1065 ± 0.5 kg/m3	1074.7 ± 0.6 kg/m3	1082.9 ± 0.7 kg/m3	1090.4 ± 0.9 kg/m3
308.15 K	1049.8 ± 0.4 kg/m3	1054.6 ± 0.4 kg/m3	1059.4 ± 0.5 kg/m3	1068.5 ± 0.6 kg/m3	1077 ± 0.7 kg/m3	1084.8 ± 0.9 kg/m3
313.15 K	1043 ± 0.4 kg/m3	1048.1 ± 0.4 kg/m3	1053 ± 0.5 kg/m3	1062.3 ± 0.5 kg/m3	1071 ± 0.7 kg/m3	1079 ± 0.8 kg/m3
